Source: ChEMBL document CHEMBL1134069 (Bioorg Med Chem Lett, 2001)

Experiments:
Deoxynucleoside kinase = target: T1, Deoxynucleoside kinase (Drosophila melanogaster, UniProt Q9XZT6); experiment: Inhibitory concentration against Drosophila melanogaster deoxyribonucleoside kinase (Dm-dNK)
T1 sequence (Q9XZT6 whole entry): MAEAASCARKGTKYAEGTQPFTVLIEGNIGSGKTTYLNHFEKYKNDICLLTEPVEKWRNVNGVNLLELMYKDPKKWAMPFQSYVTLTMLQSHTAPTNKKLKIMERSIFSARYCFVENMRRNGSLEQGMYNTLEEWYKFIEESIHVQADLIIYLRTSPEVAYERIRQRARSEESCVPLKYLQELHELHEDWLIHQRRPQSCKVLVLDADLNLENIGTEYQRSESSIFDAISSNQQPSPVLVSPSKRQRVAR

Thymidine kinase [1] = target: T2, Thymidine kinase (Human herpesvirus 1 (strain SC16) (HHV-1) (Human herpes simplex virus1), UniProt P06479); experiment: Inhibitory concentration against Herpes simplex virus type 1 thymidine kinase(HSV-1 TK); parameters: species or system Herpes simplex virus (type 1 / strain SC16)
T2 sequence (P06479 whole entry): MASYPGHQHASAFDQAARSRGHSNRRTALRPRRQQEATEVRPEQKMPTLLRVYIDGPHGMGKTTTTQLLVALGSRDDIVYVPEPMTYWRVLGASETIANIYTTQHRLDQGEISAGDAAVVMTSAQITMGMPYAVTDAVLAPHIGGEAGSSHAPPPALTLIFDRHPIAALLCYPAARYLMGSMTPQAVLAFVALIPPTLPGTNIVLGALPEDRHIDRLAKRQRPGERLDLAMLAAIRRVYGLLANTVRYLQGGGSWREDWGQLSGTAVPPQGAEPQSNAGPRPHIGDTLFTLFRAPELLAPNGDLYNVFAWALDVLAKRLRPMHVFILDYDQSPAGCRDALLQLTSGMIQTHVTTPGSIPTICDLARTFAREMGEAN

[2] = target: T3, Thymidine kinase 2, mitochondrial (Homo sapiens, UniProt O00142); experiment: Inhibitory concentration against mitochondrial thymidine kinase (TK-2)
T3 sequence (O00142 whole entry): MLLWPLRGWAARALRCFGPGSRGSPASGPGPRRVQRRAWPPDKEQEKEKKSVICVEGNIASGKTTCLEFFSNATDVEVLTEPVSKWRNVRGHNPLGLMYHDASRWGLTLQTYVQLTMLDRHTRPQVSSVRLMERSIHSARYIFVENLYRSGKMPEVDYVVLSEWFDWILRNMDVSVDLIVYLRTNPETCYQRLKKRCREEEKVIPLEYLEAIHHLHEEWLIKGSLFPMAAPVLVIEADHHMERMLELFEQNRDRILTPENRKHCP

Thymidine kinase [3] = target: T4, Thymidine kinase (Varicella-zoster virus (strain Dumas) (HHV-3) (Human herpesvirus 3), UniProt P09250); experiment: Inhibitory concentration against Varicella- zoster virus thymidine kinase(VZV TK); parameters: species or system Human alphaherpesvirus 3
T4 sequence (P09250 whole entry): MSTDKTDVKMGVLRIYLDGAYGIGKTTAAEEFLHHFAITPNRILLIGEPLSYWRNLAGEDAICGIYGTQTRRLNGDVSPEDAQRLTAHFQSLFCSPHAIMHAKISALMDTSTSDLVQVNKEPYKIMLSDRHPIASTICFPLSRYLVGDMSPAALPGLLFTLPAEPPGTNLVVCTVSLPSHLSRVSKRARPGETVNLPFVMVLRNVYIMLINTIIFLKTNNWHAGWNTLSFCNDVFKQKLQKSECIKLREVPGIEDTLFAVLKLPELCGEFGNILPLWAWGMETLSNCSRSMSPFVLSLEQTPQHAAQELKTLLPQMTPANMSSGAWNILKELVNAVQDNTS

[4] = target: T5, Thymidine kinase, cytosolic (Homo sapiens, UniProt P04183); experiment: Inhibitory concentration against cytosolic thymidine kinase (TK-1)
T5 sequence (P04183 whole entry): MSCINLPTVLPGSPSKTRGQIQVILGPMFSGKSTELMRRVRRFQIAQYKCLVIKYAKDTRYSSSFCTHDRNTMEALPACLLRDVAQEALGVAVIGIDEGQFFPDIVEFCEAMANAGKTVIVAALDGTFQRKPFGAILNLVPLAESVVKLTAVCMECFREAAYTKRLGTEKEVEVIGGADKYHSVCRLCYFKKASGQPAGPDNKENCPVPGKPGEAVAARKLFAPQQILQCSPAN

Row | Structure (SMILES) | IC50 (Deoxynucleoside kinase) | IC50 (Thymidine kinase [1]) | IC50 [2] | IC50 (Thymidine kinase [3]) | IC50 [4]
1 | Cc1cn([C@@H]2O[C@H](CO)[C@@H](O)[C@@H]2O)c(=O)[nH]c1=O | 65 µM | 24 µM | 285 µM | 17 µM | > 1000 µM
2 | CCCCCCCC(=O)O[C@H]1[C@H](O)[C@@H](CO)O[C@H]1n1cc(/C=C/Br)c(=O)[nH]c1=O | 178 µM | > 1000 µM | 6.3 µM | 718 µM | > 1000 µM
3 | CCCCCCCCO[C@H]1[C@H](O)[C@@H](CO)O[C@H]1n1ccc(N)nc1=O |  | > 1000 µM | > 1000 µM | > 1000 µM | > 1000 µM
4 | Cc1cn([C@@H]2O[C@H](CO)[C@@H](O)[C@H]2OCc2ccccc2)c(=O)[nH]c1=O | > 1000 µM | > 1000 µM | 801 µM | > 1000 µM | > 1000 µM
5 | CCCCC(=O)O[C@H]1[C@H](O)[C@@H](CO)O[C@H]1n1cc(C)c(=O)[nH]c1=O | > 1000 µM | > 1000 µM | > 1000 µM | > 1000 µM | > 1000 µM
6 | CCCCCCCCCC(=O)O[C@H]1[C@H](O)[C@@H](CO)O[C@H]1n1cc(C)c(=O)[nH]c1=O | 872 µM | > 1000 µM | 27 µM | > 1000 µM | > 1000 µM
7 | COCC(=O)O[C@H]1[C@H](O)[C@@H](CO)O[C@H]1n1cc(/C=C/Br)c(=O)[nH]c1=O |  | 84 µM | 402 µM | 35 µM | > 1000 µM
8 | CCCCCCCCCCCC(=O)O[C@H]1[C@H](O)[C@@H](CO)O[C@H]1n1cc(C)c(=O)[nH]c1=O | > 1000 µM | > 1000 µM | 28 µM | > 1000 µM | > 1000 µM
9 | CCCCCCCCO[C@H]1[C@H](O)[C@@H](CO)O[C@H]1n1cc(C)c(=O)[nH]c1=O | > 1000 µM | > 1000 µM | 120 µM | > 1000 µM | > 1000 µM
10 | CCCCCCCCCC(=O)O[C@H]1[C@H](O)[C@@H](CO)O[C@H]1n1cc(/C=C/Br)c(=O)[nH]c1=O | 163 µM | > 1000 µM | 6.8 µM | 845 µM | > 1000 µM
11 | O=c1[nH]c(=O)n(C2O[C@H](CO)[C@@H](O)[C@@H]2O)cc1/C=C\Br (some centres not stated) | 31.6 µM | 4.3 µM | 43 µM | 3.3 µM | > 500 µM
12 | Nc1ccn([C@@H]2O[C@H](CO)[C@@H](O)[C@@H]2O)c(=O)n1 [CYTARABINE] |  | > 1000 µM | > 1000 µM | > 1000 µM | > 1000 µM
